According to patent US8895571B2, “Isoindolinone and pyrrolopyridinone derivatives as Akt inhibitors” (Incyte Corporation, priority 2011, dated 2014):

How the values were obtained:
Assay type in all cases: biochemical
[1] = target: T1, Full length Akt1 (Homo sapiens, UniProt P31749); test: In vitro Akt kinase enzymatic assay (HTRF), Akt1; settings: 0.4 nM Akt1, substrate solution with 5 mM ATP, 25° C. 1 hr
T1 construct: Full length Akt1 (cat #P2999); purchased PerkinElmer P2999
Description: (§1) Compounds herein were tested for inhibitory activity of Akt targets according to the following in vitro assay. Full length Akt1 (cat #P2999), Akt2 (cat #PV3184), Akt3 (cat #PV3185), peptide substrate, Ulight-Crosstide (cat #TRF0106-M), Ultra-Europium anti-phospho-Crosstide (cat #TRF-0202-M), and 10×LANCE detection buffer (cat #CR97-100) were purchased from PerkinElmer. In general, assay buffer conditions were chosen based on obtaining optimal enzymatic and linear activities. The assay buffer contains 50 mM HEPES, 10 mM MgCl2, 5 mM DTT, 0.005% Tween20 at pH 7.8. Compound stock (0.001 mM) was prepared in DMSO. The compound plate was prepared by 3-fold and 11-point serial dilutions. 0.5 μL of the compound in DMSO was transferred from the compound plate to the assay plate. Enzyme solution (0.4 nM of Akt1, 0.6 nM of Akt2 or 0.6 nM of Akt3) was prepared in the assay buffer. Note that the enzyme concentration given is based on the given stock concentration reported by the vendor. 0.1 μM substrate solution was prepared in the assay buffer with addition of 5 mM ATP. 10 μL of the enzyme solution was added to the assay plate and then 10 μL of substrate solution was added to the assay plate. The plate was protected from light and the reaction was incubated at 25° C. for 1 hr. The reaction was stopped by adding 10 μL of a solution containing 30 mM EDTA, and 3 nM Ultra Europium anti-phospho Crosstide in 1× detection buffer. The plate was incubated for 15-30 min at room temperature and HTRF (homogenous time resolved fluorescence) was measured on a plate reader. Percentage of inhibition was calculated for each concentration and IC50 value was generated from curve fitting. See Table 8 for data related to compounds of the examples.

[2] = target: T2, Full length Akt2 (Homo sapiens, UniProt P31751); test: In vitro Akt kinase enzymatic assay (HTRF), Akt2; settings: 0.6 nM Akt2, substrate solution with 5 mM ATP, 25° C. 1 hr
T2 construct: Full length Akt1 (cat #P2999), Akt2 (cat #PV3184); purchased PerkinElmer PV3184
T2 sequence (P31751 whole entry): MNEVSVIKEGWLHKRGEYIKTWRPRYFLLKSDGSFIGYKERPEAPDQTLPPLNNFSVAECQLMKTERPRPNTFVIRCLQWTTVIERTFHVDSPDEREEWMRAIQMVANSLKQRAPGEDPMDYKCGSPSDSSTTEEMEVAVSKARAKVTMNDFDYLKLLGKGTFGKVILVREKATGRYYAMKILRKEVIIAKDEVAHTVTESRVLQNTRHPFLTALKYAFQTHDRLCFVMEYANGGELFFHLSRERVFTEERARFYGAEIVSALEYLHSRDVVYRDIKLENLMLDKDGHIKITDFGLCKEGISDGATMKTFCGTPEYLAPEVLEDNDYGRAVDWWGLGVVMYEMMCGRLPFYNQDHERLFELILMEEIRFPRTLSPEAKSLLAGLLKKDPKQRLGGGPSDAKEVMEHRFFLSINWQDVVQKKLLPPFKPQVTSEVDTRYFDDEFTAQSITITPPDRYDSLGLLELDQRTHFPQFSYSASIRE
Description: as §1

[3] = target: T3, Full length Akt3 (Homo sapiens, UniProt Q9Y243); test: In vitro Akt kinase enzymatic assay (HTRF), Akt3; settings: 0.6 nM Akt3, substrate solution with 5 mM ATP, 25° C. 1 hr
T3 construct: Full length Akt1 (cat #P2999), Akt2 (cat #PV3184), Akt3 (cat #PV3185); purchased PerkinElmer PV3185
T3 sequence (Q9Y243 whole entry): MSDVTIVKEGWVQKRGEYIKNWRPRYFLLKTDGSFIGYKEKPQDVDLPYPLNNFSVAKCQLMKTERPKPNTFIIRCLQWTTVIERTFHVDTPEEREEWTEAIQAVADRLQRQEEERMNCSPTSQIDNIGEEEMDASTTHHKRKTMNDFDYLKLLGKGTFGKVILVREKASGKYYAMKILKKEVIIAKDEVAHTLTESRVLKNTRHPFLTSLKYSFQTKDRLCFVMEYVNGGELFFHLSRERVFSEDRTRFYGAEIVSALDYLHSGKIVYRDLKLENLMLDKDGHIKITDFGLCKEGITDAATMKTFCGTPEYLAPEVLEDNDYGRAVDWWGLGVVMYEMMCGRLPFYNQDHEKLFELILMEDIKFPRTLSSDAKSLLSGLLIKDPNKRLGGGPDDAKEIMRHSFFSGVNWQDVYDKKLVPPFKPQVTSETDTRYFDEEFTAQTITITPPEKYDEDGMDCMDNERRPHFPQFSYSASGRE
Description: as §1

[4] = target: T4, Full length PKA (Homo sapiens, UniProt P17612); test: PKA in vitro enzymatic assay (HTRF); settings: 0.035 nM enzyme solution, substrate solution with 5 mM ATP, 25° C. 1 hr
T4 construct: Full length PKA (cat #P2912); purchased Invitrogen P2912
Description: Full length PKA (cat #P2912), peptide substrate, fluorescein CREBtide peptide (cat #PV3508), Tb-Crebtide p-S133 Ab (cat #PV3566), and Lanthascreen TR-FRET Dilution Buffer stored (part # PV3574) were purchased from Invitrogen. In general, assay buffer conditions were chosen based on obtaining optimal and linear enzymatic activities. The assay buffer contains 50 mM HEPES, 10 mM MgCl2, 5 mM DTT, 0.005% Tween20 at pH 7.8. Compound stock (0.001 mM) was prepared in DMSO. The compound plate was prepared by 3-fold and 11-point serial dilutions. 0.5 μL of the compound in DMSO was transferred from the compound plate to the assay plate. 0.035 nM enzyme solution was prepared in the assay buffer. Note that the enzyme concentration given is based on the given stock concentration reported by the vendor. 0.1 μM substrate solution was prepared in the assay buffer with addition of 5 mM ATP. 10 μL of the enzyme solution was added to the assay plate and then 10 μL of substrate solution was added to the assay plate. The plate was protected from light and the reaction was incubated at 25° C. for 1 hr. The reaction was stopped by adding 10 μL of a solution containing 30 mM EDTA, and 1.5 nM Tb-Crebtide p-S133 Ab in 1× detection buffer. The plate was incubated for 15-30 min at room temperature and HTRF (homogenous time resolved fluorescence) was measured on a plate reader. Percentage of inhibition was calculated for each concentration and IC50 value was generated from curve fitting. See Table 8 for data related to compounds of the examples.

T1 sequence (P31749 whole entry): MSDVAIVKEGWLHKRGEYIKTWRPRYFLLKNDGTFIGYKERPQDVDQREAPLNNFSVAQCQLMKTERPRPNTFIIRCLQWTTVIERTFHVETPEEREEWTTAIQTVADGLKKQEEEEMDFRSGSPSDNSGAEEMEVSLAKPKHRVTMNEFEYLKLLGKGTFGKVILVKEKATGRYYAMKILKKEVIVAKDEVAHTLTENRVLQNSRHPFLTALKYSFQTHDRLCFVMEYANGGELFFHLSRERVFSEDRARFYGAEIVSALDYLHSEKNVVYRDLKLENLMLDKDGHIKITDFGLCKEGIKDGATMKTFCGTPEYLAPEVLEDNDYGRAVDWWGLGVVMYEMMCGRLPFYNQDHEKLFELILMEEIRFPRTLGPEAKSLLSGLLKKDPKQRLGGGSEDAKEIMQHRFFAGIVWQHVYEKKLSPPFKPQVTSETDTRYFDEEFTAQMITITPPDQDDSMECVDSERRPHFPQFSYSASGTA

Row | Compound | IC50 [1] | IC50 [2] | IC50 [3] | IC50 [4]
1 | Cn1ncc(-c2cccc3ccccc23)c1-c1ccc2c(c1)CN([C@H](CN)Cc1cccc(F)c1)C2=O [Example 22, 2-[(1S)-2-amino-1-(3-fluorobenzyl)ethyl]-5-[1-methyl-4-(1-naphthyl)-1H-pyrazol-5-yl]isoindolin-1-one] | > 5 µM | > 5 µM | > 5 µM | > 5 µM
2 | Cn1ncc(-c2cccnc2F)c1-c1ccc2c(c1)CN([C@H](CN)Cc1cccc(F)c1)C2=O [Example 24, 2-[(1S)-2-amino-1-(3-fluorobenzyl)ethyl]-5-[4-(2-fluoropyridin-3-yl)-1-methyl-1H-pyrazol-5-yl]isoindolin-1-one] | > 5 µM | > 5 µM | > 5 µM | > 5 µM
3 | Cn1ncc(Cl)c1-c1ccc2c(c1)CN([C@H](CN)Cc1cccc(-c3ccsc3)c1)C2=O [Example 71, 2-{(1S)-2-amino-1-[3-(3-thienyl)benzyl]ethyl}-5-(4-chloro-1-methyl-1H-pyrazol-5-yl)isoindolin-1-one] | < 0.5 µM | 0.5 to 5 µM | 0.5 to 5 µM | > 5 µM
4 | CC(C)NC[C@H](Cc1cccc(F)c1)N1Cc2cc(-c3c(Cl)cnn3C)ccc2C1=O [Example 32, 5-(4-chloro-1-methyl-1H-pyrazol-5-yl)-2-[(1S)-1-(3-fluorobenzyl)-2-(isopropylamino)ethyl]isoindolin-1-one] | 0.5 to 5 µM | 0.5 to 5 µM | 0.5 to 5 µM | > 5 µM
5 | Cn1ncc(-c2ccncc2)c1-c1ccc2c(c1)CN([C@H](CN)Cc1cccc(F)c1)C2=O [Example 18, 2-[(1S)-2-amino-1-(3-fluorobenzyl)ethyl]-5-(1-methyl-4-pyridin-4-yl-1H-pyrazol-5-yl)isoindolin-1-one] | > 5 µM | > 5 µM | 0.5 to 5 µM | > 5 µM
6 | CN(C)C[C@H](Cc1cccc(F)c1)N1Cc2cc(-c3c(Cl)cnn3C)ccc2C1=O [Example 38, 5-(4-chloro-1-methyl-1H-pyrazol-5-yl)-2-[(1S)-2-(dimethylamino)-1-(3-fluorobenzyl)ethyl]isoindolin-1-one] | 0.5 to 5 µM | > 5 µM | > 5 µM | > 5 µM
7 | Cn1ncc(-c2cncc(F)c2)c1-c1ccc2c(c1)CN([C@H](CN)Cc1cccc(F)c1)C2=O [Example 26, 2-[(1S)-2-amino-1-(3-fluorobenzyl)ethyl]-5-[4-(5-fluoropyridin-3-yl)-1-methyl-1H-pyrazol-5-yl]isoindolin-1-one] | > 5 µM | > 5 µM | > 5 µM | > 5 µM

Results, then the compound that gave them:

Row | IC50 [1] | IC50 [2] | IC50 [3] | IC50 [4] | Compound
8 | < 0.5 µM | 0.5 to 5 µM | 0.5 to 5 µM | > 5 µM | Cn1ncc(Cl)c1-c1ccc2c(n1)CN([C@H](CN)Cc1cccc(F)c1)C2=O [Example 109, 6-[(1S)-2-amino-1-(3-fluorobenzyl)ethyl]-2-(4-chloro-1-methyl-1H-pyrazol-5-yl)-6,7-dihydro-5H-pyrrolo[3,4-b]pyridin-5-one]
9 | < 0.5 µM | 0.5 to 5 µM | 0.5 to 5 µM | > 5 µM | Cn1nccc1-c1ccc2c(c1)CN([C@H](CN)Cc1cscn1)C2=O [Example 82, 2-[(1S)-2-amino-1-(1,3-thiazol-4-ylmethyl)ethyl]-5-(1-methyl-1H-pyrazol-5-yl)isoindolin-1-one]
10 | < 0.5 µM | 0.5 to 5 µM | > 5 µM | > 5 µM | Cn1nccc1-c1ccc2c(c1)CN([C@H](CN)CC1CC1)C2=O [Example 136, 2-[(1S)-2-amino-1-(cyclopropylmethyl)ethyl]-5-(1-methyl-1H-pyrazol-5-yl)isoindolin-1-one]
11 | 0.5 to 5 µM | > 5 µM | > 5 µM | > 5 µM | CN(C)CC(c1ccccc1)N1Cc2cc(-c3ccnn3C)ccc2C1=O (centres unmarked) [Example 115]
